Source: US9224959B2, “Method for producing a pi-electron conjugated compound” (Ricoh Company, Ltd., priority 2009, dated 2015)

Experiments:
[1] = carboxylic acid as eliminated component; cited from earlier work
[2] = Evaluation of solubility (saturated solution after reflux and cooling to room temperature); type: physicochemical; settings: refluxed 10 min, cooled to room temperature, left 16 hours, 0.2 μm PTFE filtered
Experimental: The mixture was further stirred for 1 hour and left to stand for 16 hours, and the supernatant was filtered using a 0.2 μm-PTFE filter, to thereby obtain a saturated solution. The saturated solution was dried under reduced pressure, and the solubility of the precursor in each solvent was calculated.

| SMILES | Acidity [1] | Solubility in THF [2] | Solubility in Anisole [2] | Solubility in Chloroform [2] | Solubility in Toluene [2] |
| --- | --- | --- | --- | --- | --- |
| O=C(O)CC(F)(F)F [3,3,3-trifluoropropionic acid] | 3.0 pKa | – | – | – | – |
| CC(C)(C)C(=O)OC1CCC(OC(=O)C(C)(C)C)c2cc(-c3cc4sc(-c5ccc6c(c5)C(OC(=O)C(C)(C)C)CCC6OC(=O)C(C)(C)C)cc4s3)ccc21 (stereo not shown) [Compound 12] | – | A (the solubility is 0.5% by mass or more) | A (the solubility is 0.5% by mass or more) | A (the solubility is 0.5% by mass or more) | A (the solubility is 0.5% by mass or more) |
| O=C(CC(F)(F)F)OC1CCC(OC(=O)CC(F)(F)F)c2cc(-c3cc4sc(-c5ccc6c(c5)C(OC(=O)CC(F)(F)F)CCC6OC(=O)CC(F)(F)F)cc4s3)ccc21 (stereo not shown) [Compound 13] | – | A (the solubility is 0.5% by mass or more) | B (the solubility is 0.1% by mass or more to less than 0.5% by mass) | A (the solubility is 0.5% by mass or more) | A (the solubility is 0.5% by mass or more) |
| O=C(CC(F)(F)F)OC1CCC(OC(=O)CC(F)(F)F)c2cc(-c3cc4cc5sc(-c6ccc7c(c6)C(OC(=O)CC(F)(F)F)CCC7OC(=O)CC(F)(F)F)cc5cc4s3)ccc21 (stereo not shown) [Compound 14] | – | A (the solubility is 0.5% by mass or more) | A (the solubility is 0.5% by mass or more) | A (the solubility is 0.5% by mass or more) | B (the solubility is 0.1% by mass or more to less than 0.5% by mass) |
| O=C(CC(F)(F)F)OC1CCC(OC(=O)CC(F)(F)F)c2cc(-c3ccc4c(c3)sc3c5ccc(-c6ccc7c(c6)C(OC(=O)CC(F)(F)F)CCC7OC(=O)CC(F)(F)F)cc5sc43)ccc21 (stereo not shown) [Compound 16] | – | A (the solubility is 0.5% by mass or more) | B (the solubility is 0.1% by mass or more to less than 0.5% by mass) | A (the solubility is 0.5% by mass or more) | B (the solubility is 0.1% by mass or more to less than 0.5% by mass) |
| c1ccc2cc(-c3cc4sc(-c5ccc6ccccc6c5)cc4s3)ccc2c1 [Compound 17] | – | D (the solubility is less than 0.005% by mass) | D (the solubility is less than 0.005% by mass) | D (the solubility is less than 0.005% by mass) | D (the solubility is less than 0.005% by mass) |
| c1ccc2cc(-c3cc4cc5sc(-c6ccc7ccccc7c6)cc5cc4s3)ccc2c1 [Compound 18] | – | D (the solubility is less than 0.005% by mass) | D (the solubility is less than 0.005% by mass) | D (the solubility is less than 0.005% by mass) | D (the solubility is less than 0.005% by mass) |
| c1ccc2cc(-c3ccc4c(c3)sc3c5ccc(-c6ccc7ccccc7c6)cc5sc43)ccc2c1 [Compound 19] | – | D (the solubility is less than 0.005% by mass) | D (the solubility is less than 0.005% by mass) | D (the solubility is less than 0.005% by mass) | D (the solubility is less than 0.005% by mass) |
| CCCCCC(=O)O [caproic acid] | 4.6 pKa | – | – | – | – |
| CC(C)(C)C(=O)O [pivalic acid] | 5.0 pKa | – | – | – | – |
